# Laboratory results reported in patent US20060079696A1, “Substituted compounds derived from N-(benzyl)phenylacetamide, preparation and uses” (GENFIT, priority 2004, published 2006).
# How the values were obtained:
# hPPARα = molecular target: T1, hPPARα (Homo sapiens, UniProt Q07869); assay: Gal4-hPPARα chimera transactivation in COS-7 cells (luciferase); format: cell-based; details: induction factor standardised to an internal reference, read-out: % hGal4-PPAR transactivation (10 μM) alpha
# T1 construct: fragments of DNA amplified by PCR corresponding to the DEF domains of the human PPARα, PPARγ PPARδ nuclear receptors; expressed in transfected cells; host or cells: COS-7 (monkey kidney fibroblast line)
# T1 sequence (Q07869 239-466 limits assumed): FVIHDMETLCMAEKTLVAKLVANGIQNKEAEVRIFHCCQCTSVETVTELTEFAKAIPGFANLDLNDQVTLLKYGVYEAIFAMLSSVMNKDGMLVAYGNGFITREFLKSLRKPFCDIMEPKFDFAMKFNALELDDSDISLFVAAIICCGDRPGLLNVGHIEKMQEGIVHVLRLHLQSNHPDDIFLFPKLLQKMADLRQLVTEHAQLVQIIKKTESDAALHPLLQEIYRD
# Description: (§1) The PPAR activation was evaluated in vitro on a monkey kidney fibroblast line (COS-7) by measuring the transcriptional activity of chimeras constituted of the DNA binding domain of the Gal4 transcription factor of yeast and of the binding domain to the ligand of the different PPARs. The compounds were tested at doses between 0.01 and 100 μM on Gal4-PPARα, γ, δ chimeras. The induction factor (ratio between the luminescence induced by the compound and the luminescence induced by the control) was measured for each condition: the higher this factor, the more the compound has PPAR-activating properties.
# (§2) The COS-7 cells from ATCC were cultivated in a DMEM medium supplemented with 10% (vol/vol) of foetal calf serum, 100 U/ml penicillin (Gibco, Paisley, UK) and 2 mM L-Glutamine (Gibco, Paisley, UK). The cells were incubated at 37° C. in a humid atmosphere containing 5% CO2.
# (§3) The Gal4(RE)_TkpGL3, pGal4-hPPARα, pGal4-hPPARγ, pGal4-hPPARδ and pGal4-φ plasmids have been described in the literature (Raspe, Madsen et al. 1999). The pGal4-hPPARα, pGal4-hPPARγ and pGal4-hPPARδ constructs were obtained by cloning in the pGal4-φ vector of fragments of DNA amplified by PCR corresponding to the DEF domains of the human PPARα, PPARγ PPARδ nuclear receptors.
# (§4) COS-7 cells were plated in 96 wells plates (5×10^4 cells/well) and transfected, in the presence of 10% foetal calf serum and 150 ng DNA per well, with a pGal4-PPAR/Gal4(RE)_TkpGL3 ratio of 1/10. The cells were then incubated for 24 hours with the compounds to be tested, without serum. At the end of the experiment, the cells were lysed and the luciferase activities were determined by means of Steady Glow Luciferase (Promega) according to the supplier's recommendations.
# (§5) The inventive compounds were tested at 10 μM on the 3 PPAR isoforms. The results obtained are detailed in table (1). The transactivation measured is expressed as a response ratio versus an internal reference for each of the isoforms.
# (§6) The compounds were tested at 10 μM on the Gal4-PPARα, γ, δ chimeras. The induction factor, i.e. the ratio between the luminescence induced by the compound and the luminescence induced by the control, was measured for each condition. It was then standardised in comparison to an internal reference and the results were then expressed in percentages : the higher the activation percentage, the more the compound has PPAR-activating properties.
# hPPARα, hPPARγ, hPPARδ = assay: Gal4-hPPAR α/γ/δ transactivation: isoform selectivity and dose dependence; format: cell-based, human; details: 10 μM
# Description: as §1, §3, §4
# The inventive compounds were tested at doses between 0.01 and 100 μM on the 3 PPAR isoforms. The results obtained are detailed in FIGURES (1a), (1b) and (1c): evolution of the transactivation levels according to the dose for the three PPAR sub-types (α, γ, and δ respectively).
# hPPARγ = molecular target: T2, hPPARγ (Homo sapiens, UniProt P37231); assay: Gal4-hPPARγ chimera transactivation in COS-7 cells (luciferase); format: cell-based; details: induction factor standardised to an internal reference, read-out: % hGal4-PPAR transactivation (10 μM) gamma
# T2 construct: fragments of DNA amplified by PCR corresponding to the DEF domains of the human PPARα, PPARγ PPARδ nuclear receptors; expressed in transfected cells; host or cells: COS-7 (monkey kidney fibroblast line)
# T2 sequence (P37231 238-503 limits assumed): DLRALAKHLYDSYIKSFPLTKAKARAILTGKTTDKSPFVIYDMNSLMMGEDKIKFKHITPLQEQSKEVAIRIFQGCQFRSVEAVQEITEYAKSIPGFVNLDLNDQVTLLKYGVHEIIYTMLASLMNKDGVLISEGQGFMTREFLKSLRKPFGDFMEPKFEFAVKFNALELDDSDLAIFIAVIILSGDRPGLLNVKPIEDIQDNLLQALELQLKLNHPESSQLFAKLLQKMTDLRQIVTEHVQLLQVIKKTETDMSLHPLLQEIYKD
# Description: as §1, §2, §3, §4, §5, §6
# hPPARδ = molecular target: T3, hPPARδ (Homo sapiens, UniProt Q03181); assay: Gal4-hPPARδ chimera transactivation in COS-7 cells (luciferase); format: cell-based; details: induction factor standardised to an internal reference, read-out: % hGal4-PPAR transactivation (10 μM) delta
# T3 construct: fragments of DNA amplified by PCR corresponding to the DEF domains of the human PPARα, PPARγ PPARδ nuclear receptors; expressed in transfected cells; host or cells: COS-7 (monkey kidney fibroblast line)
# T3 sequence (Q03181 211-439 limits assumed): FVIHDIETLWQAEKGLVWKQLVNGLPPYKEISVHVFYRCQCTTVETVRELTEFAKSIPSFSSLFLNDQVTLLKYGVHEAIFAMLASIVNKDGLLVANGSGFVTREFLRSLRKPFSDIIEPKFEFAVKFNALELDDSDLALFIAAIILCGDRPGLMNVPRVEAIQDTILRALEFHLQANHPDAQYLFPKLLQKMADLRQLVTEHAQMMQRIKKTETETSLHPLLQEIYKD
# Description: as §1, §2, §3, §4, §5, §6
# [1] = molecular target: T4, ATP-dependent potassium channels (K+ATP) (Rattus norvegicus, UniProt Q09429); assay: [3H]glibenclamide binding to ATP-dependent potassium channels of rat cerebral cortex; details: 1 h; 300 nM; specific displacement of [3H]glibenclamide 0.1 nM; read-out: KATP binding (300 nM)
# T4 construct: the potassium channels derive from a rat's cerebral cortex; tissue CEREP; host or cells: rat cerebral cortex
# T4 sequence (Q09429 whole entry): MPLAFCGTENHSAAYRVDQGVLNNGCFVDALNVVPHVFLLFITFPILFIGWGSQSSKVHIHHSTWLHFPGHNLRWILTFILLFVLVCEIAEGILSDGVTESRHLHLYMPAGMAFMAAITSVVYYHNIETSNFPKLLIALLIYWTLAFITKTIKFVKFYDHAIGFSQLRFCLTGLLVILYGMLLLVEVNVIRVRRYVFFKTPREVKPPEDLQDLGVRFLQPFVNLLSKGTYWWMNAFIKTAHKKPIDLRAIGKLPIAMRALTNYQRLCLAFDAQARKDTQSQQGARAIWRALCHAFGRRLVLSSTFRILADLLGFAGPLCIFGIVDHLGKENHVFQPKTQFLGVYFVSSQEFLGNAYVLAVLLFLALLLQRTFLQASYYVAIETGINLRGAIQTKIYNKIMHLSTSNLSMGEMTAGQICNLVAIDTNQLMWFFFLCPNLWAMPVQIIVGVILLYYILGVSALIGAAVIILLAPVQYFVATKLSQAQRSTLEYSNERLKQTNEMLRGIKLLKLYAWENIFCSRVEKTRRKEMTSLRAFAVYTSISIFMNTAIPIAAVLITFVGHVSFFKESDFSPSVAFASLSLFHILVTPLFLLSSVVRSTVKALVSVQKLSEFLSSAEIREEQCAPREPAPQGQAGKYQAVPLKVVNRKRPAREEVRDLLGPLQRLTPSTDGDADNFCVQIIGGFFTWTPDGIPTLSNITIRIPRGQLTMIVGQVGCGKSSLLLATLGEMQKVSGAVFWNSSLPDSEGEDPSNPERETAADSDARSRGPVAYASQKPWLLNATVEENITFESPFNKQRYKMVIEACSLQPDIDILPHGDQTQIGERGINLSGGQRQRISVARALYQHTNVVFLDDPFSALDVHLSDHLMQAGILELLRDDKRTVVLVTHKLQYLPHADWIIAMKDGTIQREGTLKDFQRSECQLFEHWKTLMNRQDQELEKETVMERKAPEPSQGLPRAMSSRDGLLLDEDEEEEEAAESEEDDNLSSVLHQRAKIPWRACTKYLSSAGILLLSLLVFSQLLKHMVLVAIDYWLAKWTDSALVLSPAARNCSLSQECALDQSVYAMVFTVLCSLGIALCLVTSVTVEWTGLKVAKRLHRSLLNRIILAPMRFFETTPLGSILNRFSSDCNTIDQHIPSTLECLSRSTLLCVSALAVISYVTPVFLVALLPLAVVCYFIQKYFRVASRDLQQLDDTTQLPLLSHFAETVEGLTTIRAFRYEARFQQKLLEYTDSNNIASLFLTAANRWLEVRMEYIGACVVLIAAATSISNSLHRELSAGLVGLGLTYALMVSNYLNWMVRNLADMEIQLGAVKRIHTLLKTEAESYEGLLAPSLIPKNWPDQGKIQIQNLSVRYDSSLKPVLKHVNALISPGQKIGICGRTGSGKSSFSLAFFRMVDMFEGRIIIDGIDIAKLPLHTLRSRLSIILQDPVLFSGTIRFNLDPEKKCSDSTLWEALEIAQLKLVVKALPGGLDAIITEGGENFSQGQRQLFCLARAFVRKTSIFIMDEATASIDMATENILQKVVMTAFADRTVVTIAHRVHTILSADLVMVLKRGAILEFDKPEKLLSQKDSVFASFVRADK
# T4 sequence (P70673 whole entry partner): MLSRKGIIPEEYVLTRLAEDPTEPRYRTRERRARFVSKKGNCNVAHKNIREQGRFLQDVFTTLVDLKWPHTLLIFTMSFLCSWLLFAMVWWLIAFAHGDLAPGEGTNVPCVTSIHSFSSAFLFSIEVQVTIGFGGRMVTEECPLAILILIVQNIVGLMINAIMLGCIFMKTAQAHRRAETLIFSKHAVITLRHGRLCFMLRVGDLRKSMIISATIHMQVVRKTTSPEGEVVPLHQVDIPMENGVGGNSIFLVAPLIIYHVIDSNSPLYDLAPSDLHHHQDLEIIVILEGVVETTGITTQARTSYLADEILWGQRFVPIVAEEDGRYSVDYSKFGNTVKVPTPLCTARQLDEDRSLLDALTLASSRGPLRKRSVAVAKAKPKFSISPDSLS
# Description: The results shown reflect the specific affinity of the inventive compounds on the ATP-dependent (K^+ATP) potassium channels. The specific binding measured corresponds to the difference between the total binding and the non-specific binding determined in the presence of an excess of non-marked reference ligand (glibenclamide 1 μM). The inventive compounds were tested at doses between 3 and 300 nM: the higher the percentage measured, the stronger the affinity of the compound for the ATP-dependent potassium channels.
# The binding test was carried out at CEREP (Celle L'Evescault, France (86)) according to a protocol inspired by Angel et al. (Angel and Bidet 1991): the potassium channels derive from a rat's cerebral cortex and the reference compound is [^3H]glibenclamide at 0.1 nM. The protocol consists of incubation at 22° C. for one hour.
Structure (SMILES),activation at 10 µM (hPPARα) [%],activation at 10 µM (hPPARγ) [%],activation at 10 µM (hPPARδ) [%],inhibition at 0.3 µM [1] [%],"selectivity with respect to PPAR isoforms (hPPARα, hPPARγ, hPPARδ)"
"CC(C)(Oc1ccc(CC(=O)NC(CC2CCCCC2)c2ccccc2N2CCCCC2)cc1)C(=O)O (stereo not drawn) [Compound 19, 2-[4-[1-(2-cyclohexyl-1-(2-(1-piperidinyl)phenyl)ethyl)aminocarbonylmethyl]phenoxy]-2-methylpropanoic acid]",< 10,95,< 10,,activates neither hPPARα nor hPPARδ
"CCCCC(NC(=O)Cc1ccc(OC(C)(C)C(=O)O)cc1)c1ccccc1Sc1ccccc1 (stereo not drawn) [Compound 36, 2-[4-[1-(1-(2-(phenylthio)phenyl)pentyl)aminocarbonylmethyl]phenoxy]-2-methylpropanoic acid]",54,73,< 10,45,"activates hPPARα and hPPARγ, but not hPPARδ"
"CC(C)CC(NC(=O)Cc1ccc(OC(C)(C)C(=O)O)cc1)c1ccc(-c2ccccc2)cc1N1CCCCC1 (stereo not drawn) [Compound 39, 2-[4-[1-(3-methyl-1-(2-(1-piperidinyl)-4-(phenyl)phenyl)butyl)aminocarbonylmethyl]phenoxy]-2-methylpropanoic acid]",16,29,24,,"ligand of hPPARα, hPPARγ and hPPARδ"
"CCCCC(NC(=O)Cc1ccc(OC(C)(C)C(=O)O)cc1)c1ccc(-n2cccc2)cc1N1CCCCC1 (stereo not drawn) [Compound 49, 2-[4-[1-(1-(2-(1-piperidinyl)-4-(1H-pyrrolyl)phenyl)pentyl)aminocarbonylmethyl]phenoxy]-2-methylpropanoic acid]",< 10,87,57,,"activates hPPARγ and hPPARδ, but not hPPARα"

# Second part, led by results:
activation at 10 µM (hPPARα) [%],activation at 10 µM (hPPARγ) [%],activation at 10 µM (hPPARδ) [%],inhibition at 0.3 µM [1] [%],Structure (SMILES),"selectivity with respect to PPAR isoforms (hPPARα, hPPARγ, hPPARδ)"
46,< 10,< 10,49,"CCCCC(NC(=O)Cc1ccc(OC(C)(C)C(=O)NS(=O)(=O)C(F)(F)F)cc1)c1ccccc1N1CCCCC1 (stereo not drawn) [Compound 60, N-[trifluoromethylsulfonyl]-2-[4-[1-(1-(2-(1-piperidinyl)phenyl)pentyl)aminocarbonylmethyl]phenoxy]-2-methylpropanamide]",hPPARα selective
< 10,18,< 10,57,"CC(C)CC(NC(=O)Cc1ccc(OC(C)(C)C(=O)NS(=O)(=O)c2ccccc2)cc1)c1ccccc1N1CCCCC1 (stereo not drawn) [Compound 64, N-[phenylsulfonyl]-2-[4-[1-(3-methyl-1-(2-(1-piperidinyl)phenyl)butyl)aminocarbonylmethyl]phenoxy]-2-methylpropanamide]",
< 10,50,< 10,90,"CCCC(NC(=O)Cc1ccc(OC(C)(C)C(=O)O)cc1)c1ccccc1N1CCCCC1 (stereo not drawn) [Compound 65, 2-[4-[1-(1-(2-(1-piperidinyl)phenyl)butyl)aminocarbonylmethyl]phenoxy]-2-methylpropanoic acid]",
